Laboratory results from the CheMixHub ionic liquid set.
“And” between values parts separate entries of the source, which are not always exact repeats. Equal values may be shown once. ± gives the uncertainty stated by the source.

Assay: xn = mol fraction of the nth substance listed

CCCC[P+](CCCC)(CCCC)CCCC.[Br-] + OCC(O)CO + O
viscosity [mPa·s], 101.3 kPa
Settings	x1 = 0.03663, x2 = 0.07337	x1 = 0.06194, x2 = 0.1241	x1 = 0.09824, x2 = 0.1968	x1 = 0.1305, x2 = 0.2615	x1 = 0.1725, x2 = 0.3455	x1 = 0.1845, x2 = 0.3695	x1 = 0.2344, x2 = 0.4696	x1 = 0.2594, x2 = 0.5196	x1 = 0.3007, x2 = 0.6023	x1 = 0.333, x2 = 0.667
293.15 K	9.46 ± 0.98	24.1 ± 2.5	60.1 ± 6.1	99 ± 10	156 ± 16	170 ± 17	249 ± 25	300 ± 31	393 ± 41	468 ± 49
298.15 K	7.51 ± 0.77	18.5 ± 1.9	45.8 ± 4.6	72.1 ± 7.3	109 ± 11	120 ± 12	176 ± 18	212 ± 22	276 ± 28	329 ± 34
303.15 K	6.25 ± 0.64	15 ± 1.5	35.7 ± 3.6	55 ± 5.5	79.9 ± 8	90.9 ± 9.2	130 ± 13	154 ± 16	198 ± 20	235 ± 24
308.15 K	5.21 ± 0.53	12 ± 1.2	28.3 ± 2.9	42.6 ± 4.3	62.8 ± 6.3	67.8 ± 6.8	96.5 ± 9.7	118 ± 12	145 ± 15	172 ± 17
313.15 K	4.15 ± 0.43	9.9 ± 1	22.1 ± 2.2	32.4 ± 3.3	47 ± 4.7	49.3 ± 5	66.5 ± 6.7	88.4 ± 8.9	99 ± 10	116 ± 12
318.15 K	3.74 ± 0.38	8.49 ± 0.86	18 ± 1.8	26.4 ± 2.7	38.4 ± 3.9	41.4 ± 4.2	57.6 ± 5.8	67.5 ± 6.8	83.2 ± 8.4	97.1 ± 9.8
323.15 K	3.26 ± 0.33	7.02 ± 0.71	14.5 ± 1.5	21 ± 2.1	29 ± 2.9	31.2 ± 3.1	42.5 ± 4.3	50.4 ± 5.1	57.9 ± 5.8	68.4 ± 6.9

CCCC[P+](CCCC)(CCCC)CCCC.[Br-] + O
Settings	viscosity [mPa·s]
298.15 K, 101 kPa, x1 = 0.09759	10.65 ± 0.25

Cc1n(S(=O)(=O)O)cc[n+]1S(=O)(=O)O.O=C([O-])C(F)(F)F + CO
Settings	electrical conductivity [S/m]
298.15 K, 101 kPa, x1 = 0.0104	1.52 ± 0.03

CC[n+]1ccn(C)c1.O=S(=O)([O-])C(F)(F)F + OCCO
100 kPa
Settings	electrical conductivity	viscosity [mPa·s]
293.15 K, x1 = 0.001	–	20.7 ± 0.4
293.15 K, x1 = 0.007	–	20.4 ± 0.4
293.15 K, x2 = 0.974	–	19.6 ± 0.4
298.15 K, x1 = 0.001	0.0058 S/m and 0.0109 S/m	16.9 ± 0.4
298.15 K, x2 = 0.798	–	16.62 ± 0.62
303.15 K, x1 = 0.013	–	13.4 ± 0.3
303.15 K, x2 = 0.0943	–	30.94 ± 0.7
303.15 K, x2 = 0.2	–	23.4 ± 0.5
308.15 K, x2 = 0.6019	–	13.71 ± 0.62
308.15 K, x2 = 0.8964	–	11.78 ± 0.61
313.15 K, x1 = 0.001	0.01 S/m and 0.0188 S/m	9.53 ± 0.2
313.15 K, x2 = 0.408	–	13.87 ± 0.62
313.15 K, x2 = 0.497	–	10.6 ± 0.2
313.15 K, x2 = 0.808	1.51 ± 0.06 S/m	8 ± 0.17
318.15 K, x2 = 0.0943	–	19.42 ± 0.64
323.15 K, x2 = 0.0943	–	16.91 ± 0.63
323.15 K, x2 = 0.2021	–	13.96 ± 0.62
323.15 K, x2 = 0.408	–	11.12 ± 0.61

CCCC[P+](CC)(CCCC)CCCC.[Br-] + OCCO
101 kPa, x1 = 0.333
Settings	viscosity [mPa·s]
303.15 K	43.82 ± 0.45
313.15 K	29.04 ± 0.3
323.15 K	20.08 ± 0.21
333.15 K	14.44 ± 0.15
343.15 K	10.69 ± 0.11
353.15 K	8.22 ± 0.08
